Assay results from patent US10752591B2, “18-20 member bi-polycyclic compounds” (Haro Pharmaceutical Inc., priority 2014, dated 2020).

What was measured:
[1] = target: purified recombinant human HDAC-1 (Homo sapiens, UniProt Q13547); experiment: HDAC-1 enzymatic inhibition (AMC fluorogenic peptide deacetylation); format: biochemical; conditions: up to
Procedure: (§1) The effect of compounds on the enzymatic activity of purified recombinant human HDAC-1, -2, -3, -6, and -8 activity and of purified rat liver HDAC was examined by measuring the deacetylation of synthetic peptides in various preparations of HDACs. HDAC assays were performed using a two-step enzymatic reaction where enzyme activity is correlated to the release of […] (AMC). AMC fluorescence is measured in a fluorescent plate reading using λex380 nm and λen440 nm.
(§2) The reaction was allowed to proceed for 40 min at 37° C., after which developer solution (0.5% trypsin, 10 μM trichostatin A (TSA)) was added to obtain a final concentration of 0.1% trypsin, 2 μM TSA. After 30 minutes at room temperature, the amount of free fluorogenic AMC was measured as described above.

[2] = target: T1, purified recombinant human HDAC-8 (Homo sapiens, UniProt Q9BY41); experiment: HDAC-8 enzymatic inhibition (Boc-Lys(Tfa)-AMC / HDAC-Glo I/II); format: biochemical; conditions: relative to compound 17
T1 construct: purchased Cayman Chem 10009465 (AMC assay (so in the source)); 19380 (HDAC-Glo assay)
T1 sequence (Q9BY41 1-377): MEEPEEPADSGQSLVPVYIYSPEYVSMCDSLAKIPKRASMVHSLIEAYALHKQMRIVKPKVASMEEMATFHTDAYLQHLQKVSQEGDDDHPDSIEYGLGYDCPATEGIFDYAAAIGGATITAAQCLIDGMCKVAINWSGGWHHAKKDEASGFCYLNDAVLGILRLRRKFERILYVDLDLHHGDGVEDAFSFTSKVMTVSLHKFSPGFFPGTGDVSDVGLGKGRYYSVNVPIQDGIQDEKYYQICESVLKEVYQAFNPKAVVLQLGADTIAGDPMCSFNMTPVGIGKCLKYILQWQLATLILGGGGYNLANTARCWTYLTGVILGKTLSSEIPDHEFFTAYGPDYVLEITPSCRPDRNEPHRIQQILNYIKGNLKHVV
Procedure: as §1
HDAC-8, HDAC-9, HDAC-10 and HDAC-11 were assayed using HDAC-Glo™ I/II Kit (Promega Corporation G6421) in a total volume of 110 μl following the manufacturer's instructions.
as §2

purified rat liver HDAC = purified rat liver HDAC inhibition; format: biochemical; conditions: relative to compound 17
Procedure: as §1, §2

RXR = experiment: RXR-mediated transcription, RXRE luciferase reporter in MCF7 cells; format: cell-based
Excerpt: (§3) The effect of various compounds of the invention on RAR-mediated transcription in MCF7 breast cancer cells was examined by measuring their effect on the transcription of a luciferase reporter gene under the control of a TK promoter placed downstream of a RAR response element. In addition, the effect of the compounds on the closely related RXR-mediated transcription was examined by measuring their effect on the transcription of a luciferase reporter gene under the control of a TK promoter placed downstream of a RXR response element.
(§4) Typically, 10,000 cells were plated in 96 wells plates in phenol red-free RPMI medium supplemented with 10% charcoal-stripped Fetal Bovine Serum. After 24 hours, cells were transfected with 0.1 μg of luciferase reporter plasmid and 0.01 μg of a reporter plasmid expressing renilla luciferase (RLuc) gene under the control of a SV40 promoter, using Fugene 6 transfection reagent (0.5 μl/well Promega Corporation). Cells were treated in triplicate with compounds or vehicle (DMSO) for 24 hours. Luciferase and renilla luciferase activities were measured using Dual-Glo reagent (Promega Corporation). Luciferase activity was normalized in each well for renilla activity.

[3] = tested on: IMR-32 neuroblastoma cells; experiment: cytotoxicity, cell survival (CellTiterGlo) in IMR-32; format: cell-based; conditions: relative to compounds 17 and 8
Procedure: (§5) The cytotoxicity of compounds was examined and directly compared to compound 17, by measuring cell survival of clonal tumor cell lines IMR-32, BE2C (neuroblastoma), as well as MDA-MB-231, BT20, HCC-38 (Basal) and MCF7 (luminal) breast cancer cells (ATCC). Cells were cultured in phenol red-free RPMI medium supplemented with 10% FBS and 1 mM Ala-Glu. Typically, 10,000-20,000 cells/well were plated in a 96 well plate (Costar 3197). Cells were exposed to compounds or vehicle (1% DMSO final). Cells were maintained in the presence of compound for four or five days. Media and compounds were renewed every 48 hours. Cell survival was measured using the luminescence CellTiterGlo kit (Promega Corporation) and expressed as relative light unit as fold over DMSO.

RAR = experiment: RAR-mediated transcription, RARE-tk luciferase reporter in MCF7 cells; format: cell-based
Excerpt: as §3, §4

[4] = tested on: BE-2C neuroblastoma cells; experiment: cytotoxicity, cell survival (CellTiterGlo) in BE-2C; format: cell-based; conditions: BE-2C cells
Procedure: as §5

[5] = tested on: MDA-MB-231 breast cancer cells; experiment: cytotoxicity, cell survival (CellTiterGlo) in MDA-MB-231; format: cell-based; conditions: MDA-MB-231 cells
Procedure: as §5

C2Cl2 cells = experiment: myoblast fusion in long term C2Cl2 cultures (MHC immunocytochemistry); format: cell-based; conditions: long-term culture, suboptimal RPMI media with 2% horse serum
Procedure: The effect of compounds on myoblast fusion was examined in C2Cl2 cells maintained in RPMI media supplemented with 2% horse serum. C2Cl2 myoblastic cells where purchased from the American Type Culture Collection (ATCC) and maintained undifferentiated in RPMI media (Corning) supplemented with 2 mM L-Alanine-L-Glutamine (ATCC) and 1 mM pyruvate (Corning). Undifferentiated cells where maintained below 70% confluence. For long term cultures and compound treatment, cells where plated at high density CellBIND Culture Dishes (corning 3294, 3296, 3337) and in RPMI supplemented with 2% Horse Serum (Gibco) and 2 mM L-Alanine-L-Glutamine (ATCC) and 1 mM pyruvate (Corning). Compounds were dissolved in DMSO at 1000 time the final concentration and diluted 1-in-1000 in the media covering the cells. Media and compounds were changed daily. For immunocytochemistry, cells were fixed in 2% PFA in HBSS for 10 minutes and left in HBSS at 4° under humidified atmosphere and processed for immunocytochemistry. For myosin heavy chain detection (MHC), cells were first incubated in 100 ul-1 ml 0.15 M Glycine in DPBS for 10 minutes, rinse with DPBS. 100 ul-1 ml 0.5% Triton-X in DPBS was added for 10 minutes, rinsed with DPBS, and followed by incubation with 100 ul blocking agent (10% goat serum in DPBS) for 30 min at room temperature. MF20 primary antibody in 10% goat serum in DPBS was added at 1/60 dilution for 30 min at room temperature and rinsed three times with 100 ul DPBS. IgG2b goat anti mouse secondary antibody (Jackson Immuno-Research) was added at 1:1000 in 10% goat serum in DPBS for exactly 30 min at room temperature then rinsed 3 times with 100 ul DPBS. A final rinse in H2O was performed and cells were covered with two drops of Elvanol and cover gently with cover slip and allowed to dry in the dark for 24-48 hours.

[6] = tested on: Lys40 acetylated alpha tubulin; experiment: intracellular acetylation of alpha-tubulin in BE-2C cells; format: cell-based; conditions: 16 hours
Procedure: The effect of certain compounds on intracellular acetylation of target proteins was tested in high risk neuroblastoma cells, BE-2C and IMR-32 cells.
BE-2C cells were grown to confluence in phenol-red-free RPMI media supplemented with 10% FBS and 2.5 mM Ala-Glu. […] Total and Lys 40 acetylated alpha tubulin were detected using specific antibodies.
Beta actin, total and Lys382 acetylated p53, and Lys40 acetylated alpha, and total tubulin were detected using antibodies (Cell Signaling #8557, #2524 #2525, #12152 and #2144 respectively) using manufacturer recommended conditions.

purified recombinant human HDAC-1, sequence (Q13547 whole entry): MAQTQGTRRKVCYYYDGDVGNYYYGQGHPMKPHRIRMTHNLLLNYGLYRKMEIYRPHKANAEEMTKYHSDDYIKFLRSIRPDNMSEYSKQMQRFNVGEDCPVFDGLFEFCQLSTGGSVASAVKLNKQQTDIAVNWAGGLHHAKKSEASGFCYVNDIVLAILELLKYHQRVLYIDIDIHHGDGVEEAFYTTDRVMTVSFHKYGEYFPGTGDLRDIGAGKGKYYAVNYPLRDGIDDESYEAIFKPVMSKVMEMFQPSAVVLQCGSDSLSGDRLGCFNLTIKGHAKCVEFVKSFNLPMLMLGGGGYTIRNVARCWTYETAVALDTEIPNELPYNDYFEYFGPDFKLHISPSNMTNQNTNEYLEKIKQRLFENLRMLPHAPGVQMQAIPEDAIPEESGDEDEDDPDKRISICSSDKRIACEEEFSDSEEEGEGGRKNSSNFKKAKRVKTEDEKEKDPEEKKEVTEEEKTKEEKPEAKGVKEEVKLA

## CC1(C)CCC(C)(C)c2cc(-c3c[nH]c4ccc(C(=O)NO)cc34)ccc21 [Compound 5]
[1]
  maximal inhibition of HDAC-1 activity: ~50%
[2]
  times/fold more potent than compound 17 in HDAC-8 inhibition: over 200
Purified rat liver HDAC
  times more potent than compound 17 in inhibition of purified rat hepatic HDAC: six
RXR
  transcriptional activation of RXR / RXRE-promoter: none
[3]
  fold more potent than compounds 17 and 8 in killing IMR-32 cells: ten

## CC1(C)CCC(C)(C)c2cc(-c3ccc4nc(C(=O)NO)ccc4c3)ccc21 [Compound 8]
Purified rat liver HDAC
  times more potent than compound 17 in inhibition of purified rat hepatic HDAC: at least three
RAR
  RARE-dependent luciferase expression: activated
RXR
  transcriptional activation of RXR / RXRE-promoter: none

## CC1(C)CCC(C)(C)c2cc(-c3c[nH]c4cc(C(=O)NO)ccc34)ccc21 [Compound 18]
[1]
  maximal inhibition of HDAC-1 activity: ~50%
RAR
  RARE-dependent luciferase expression: activated
RXR
  transcriptional activation of RXR / RXRE-promoter: none
[4]
  cytotoxic potency compared with compound 17, SAHA, Ricolinistat: more potent than compound 17, SAHA or Ricolinistat
[5]
  cytotoxic potency compared with compound 17, SAHA, Ricolinistat: more potent than compound 17, SAHA or Ricolinistat

## CC1(C)CCC(C)(C)c2cc(-c3ccc4cc(C(=O)NO)[nH]c4c3)ccc21 [Compound 19]
RAR
  RARE-dependent luciferase expression: activated
RXR
  transcriptional activation of RXR / RXRE-promoter: none

## CC1(C)CCC(C)(C)c2cc(-c3ccc4cc(C(=O)NO)cnc4c3)ccc21 [Compound 20, N-hydroxy-7-(5,5,8,8-tetramethyl-5,6,7,8-tetrahydronaphthalen-2-yl)quinoline-3-carboxamide]
RAR
  RARE-dependent luciferase expression: activated
RXR
  transcriptional activation of RXR / RXRE-promoter: none

## CC1(C)CCC(C)(C)c2cc(-c3ccc4ccc(C(=O)NO)cc4c3)ccc21 [Compound 21, N-hydroxy-5′,5′,8′,8′,-tetramethyl-5′,6′,7′,8′-tetrahydro-[2,2′-binaphthalene]-7-carboxamide]
RXR
  transcriptional activation of RXR / RXRE-promoter: none

## C/C(=C\c1ccc(C(=O)NO)cc1)c1ccc2c(c1)C(C)(C)CCC2(C)C [Compound B, (E)-N-hydroxy-4-(2-(5,5,8,8-tetramethyl-5,6,7,8-tetrahydronaphthalen-2-yl)prop-1-en-1-yl)benzamide]
C2Cl2 cells
  fusion of single cells into multinucleated C2Cl2 myotubes: enhances the fusion

## O=C(CCCCCCNC(=O)c1cnc(N(c2ccccc2)c2ccccc2)nc1)NO [Ricolinostat]
[6]; 2 uM
  Lysin (K) 40 alpha-Tubulin acetylation: pronounced Lysin (K) 40 alpha-Tubulin acetylation

## O=C(CCCCCCC(=O)Nc1ccccc1)NO [SAHA, suberoylanilide hydroxamic acid]
[6]; 2 uM
  Lysin (K) 40 alpha-Tubulin acetylation: pronounced Lysin (K) 40 alpha-Tubulin acetylation

## CC(/C=C/C(=O)NO)=C\[C@@H](C)C(=O)c1ccc(N(C)C)cc1 [TSA, trichostatin A]
[6]; 1 uM
  Lysin (K) 40 alpha-Tubulin acetylation: pronounced Lysin (K) 40 alpha-Tubulin acetylation
